Broadly, the IC50 is the concentration needed to halve the response being measured. Higher therefore signals a need for much substance. Usually EC50 stands for the midpoint of the concentration-response curve.

Assay [1] has as its target T1, PD-L1 (Homo sapiens (Human), UniProt Q9NZQ7). Nature of the assay: Indirect PD-L1 internalization assay using MDA-MB231 cells. Format: cell-based. The settings on record: 16 hrs. The method, then:
For the indirect analysis, cell surface PD-L1 was detected with fluorescently labeled anti-PD-L1 (CD274) antibodies. CHO-PD-L1 cells were seeded at 2×10^5 cells per well of a 6-well tissue culture plate in 2 ml of F-12 medium supplemented with 10% FBS, 200 μg/ml Hydromycin and 250 μg/ml Geneticin and allowed to attach for 24 hours. After 24 hours, test compounds were added to a final concentration of 1 uM from DMSO stocks, and an equal volume of DMSO was added to control wells. Cells were incubated in the presence of a compound for 16 hours at 37° C., 5% CO2. Prior to analysis, the cells were washed twice with 1 mL of Ca, Mg free PBS and detached with 1 mL of lift buffer (10 mM Tris, 140 mM NaCl, 1 mM EDTA). The collected cells were stained with PE-conjugated mouse anti-human CD274 antibody according to manufacturer instructions: BD Pharmigen #557924 Clone MIH1 (20 μL of Ab per 100 uL of BSA based staining buffer) or eBioscience #12-5983 Clone MIH1 (2 μL per 100 ul of BSA based staining buffer). Cells were incubated at room temperature for 20 minutes, protected from light, washed twice with Ca, Mg free PBS and resuspended in 400 μL of PBS. Antibody binding was detected by flow cytometry using an Accuri C6 instrument. Isotype control antibody-stained cells were used as a negative control. To test that lack of PD-L1 cell surface staining was not due to inhibition of detection antibody binding by the test article, an acid-wash procedure was used. After 16 hours of incubation in the presence of a compound or anti-PD-L1 antibody, the remaining, non-internalized a compound or antibody was stripped from the cell surface using freshly prepared, ice-cold acid stripping buffer (DMEM/0.2% BSA, pH 3.5). Cells were washed in this manner three times for 5 minutes each on a shaking platform. The stripped cells were then washed with ice-cold PBS three times for 5 minutes each with gentle shaking, harvested with lift buffer and stained with PE-mouse anti human CD274 antibodies as described.
For the indirect method of assessing PD-L1 internalization using the MDA-MB231 breast cancer cell line, the procedure for the assays was the same as described for the CHO-PD-L1 cells with the following changes. MDA-MB231 were seeded at 2×10^5 cells per well of a 6-well tissue culture plate in 2 ml of RPMI1640 medium supplemented with 10% FBS. After compound treatment for 16 hrs, the cells were treated with the stripping buffer (DMEM/0.2% BSA, pH 3.5) prior to staining with the anti-CD274 antibodies as described.

The next assay addresses PD-1/PD-L1 (Homo sapiens (Human), UniProt Q9NZQ7). Description: PD-1/PD-L1 binding assay (Alphascreen). The method, then:
Binding assays were conducted in a low volume white 384-well polystyrene plate in a final volume of 20 μL. Compounds to be analyzed were first serially diluted in DMSO and added to the plate wells before the addition of other reaction components. The final concentration of DMSO in the assay was 1%. The assay was carried out at 25° C. in the PBS buffer (pH 7.4) with 0.05% Tween-20 and 0.1% BSA. Recombinant human PD-L1 protein (19-238) with a His-tag at the C-terminus was purchased from AcroBiosystems (PD1-H5229). Recombinant human PD-1 protein (25-167) with Fc tag at the C-terminus was also from AcroBiosystems (PD1-H5257). PD-L1 and PD-1 proteins were diluted in the assay buffer (final concentration—0.67 and 0.20 nM respectively) and 10 μL was added to the plate well. Plates were centrifuged and proteins were preincubated with compounds for 40 minutes. The incubation was followed by the addition of 10 μL of assay buffer supplemented with Alphascreen Ni chelate donor beads (PerkinElmer—AS101D) and Protein A Acceptor beads (PerkinElmer—6760137) at final concentration 2.5 μg/mL under reduced light. After plate sealing, the plate was incubated in the dark at room temperature for 120 minutes before reading on a PHERAstar FS plate reader (BMG Labtech). IC50 determination was performed by fitting the curve of percent control activity versus the log of the compound concentration using the GraphPad Prism 5.0 software.
(Alpha assays give light when donor and acceptor beads are brought close together.)

For assay [2], the target named is T1, PD-L1. Description: Indirect whole blood PD-L1 internalization assay. The settings on record: interferon γ, 18 hours, CD14+ gated. Format: cell-based. The procedure: To determine PD-L1 internalization in human whole blood, normal human blood (Biological Specialty Corp, Colmar. Pa.) was incubated in the presence or absence of a concentration range of test compounds and 1 ng/ml human interferon γ (R&D Systems Inc. Minn. Minn.) in a 96 well round bottom plate (Corning, Corning, N.Y.) for 18 hours at 37° C. Blood was then transferred into 96 well “2 ml Assay Block” (Corning, Corning N.Y.) and stained with PD-L1 (MIH1, eBioscience; or BD Biosciences San Jose, Calif.), CD14 (Life Technologies, Carlsbad, Calif.) for 30 minutes in the dark at room temperature. Whole Blood/red cells were lysed/fixed (lysis buffer BD Biosciences) for 5 minutes at 37° C. in dark and then centrifuged at 1600 RPM for 5 minutes and cells were transferred into 96 well round bottom plates (Corning). Cells were gated on CD14+ (BD Biosciences) and PD-L1 expression determined by mean fluorescence intensity (MFI) (BD LSRFortessa™ X-20). IC50 determination was performed by fitting the curve of compound percent inhibition versus the log of the compound concentration using the GraphPad Prism 7.0 software.

The test system of the next assay is IRF3. Nature of the assay: IRF3 activation assay in THP-1 Dual cells. Format: cell-based. The settings on record: Homo sapiens, THP-1, Table 4C; read-out: THP1 IRF3 EC50. In short, it runs like this: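 THP-1 Dual cells (100,000/well) were treated with serially diluted compound for 24 h at 37° C, 5% CO2. IRF3 reporter activity in supernatant was read with QUANTI-Blue as absorbance at 620-655 nm after 2 h, with untreated cells as negative control. EC50 came from fitting percent control activity against log concentration.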

For assay [3], the system named is IFNβ production in CD11b+ monocytes. Description: IFN-beta induction in CD11b+ monocytes from healthy donor PBMC. Format: cell-based, human. To be noted: Homo sapiens, CD11b+ monocyte cultures, 20 hours, mean ± SEM. The procedure: (§1) CD11b^+ cells were isolated from healthy PBMCs as well as Pleural effusion samples using Miltenyi isolation kit according to manufacturer's protocol. Cells were seeded in 96 well plates at the density of 300,000 cells/wells, and then treated with various concentrations of compounds for 20 hours. After 20 hours, IFN-beta secretion levels were evaluated in the culture supernatants by MSD singleplex assay. EC50 values were calculated using Prism software.
(§2) Different naked STING agonisst and PD-L1-targeted small molecule-STING agonist conjugates were added to CD11b^+ monocytes cultures isolated from healthy donor blood or lung cancer patients' pleural effusions. Culture supernatants were collected 20 hours later and IFNβ production were determined using MSD singleplex assay.

Assay [4] shares this test system. Nature of the assay: IFN-beta induction in CD11b+ monocytes from lung cancer pleural effusions. Format: cell-based, human. To be noted: Homo sapiens; CD11b+ monocyte cultures, lung cancer pleural effusion, 20 hours; read-out: EC50 for IFNβ induction, Cancer patient. The method, then:
as §1, §2

T1 sequence (Q9NZQ7 19-290): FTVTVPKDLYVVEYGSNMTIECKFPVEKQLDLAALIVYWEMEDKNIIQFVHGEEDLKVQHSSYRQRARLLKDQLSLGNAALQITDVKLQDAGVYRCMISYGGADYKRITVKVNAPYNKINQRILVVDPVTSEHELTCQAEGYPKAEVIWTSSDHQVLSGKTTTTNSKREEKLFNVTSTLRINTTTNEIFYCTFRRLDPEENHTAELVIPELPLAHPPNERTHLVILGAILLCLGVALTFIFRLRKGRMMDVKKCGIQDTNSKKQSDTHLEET
Chain of PD-1/PD-L1 (Q9NZQ7 19-238): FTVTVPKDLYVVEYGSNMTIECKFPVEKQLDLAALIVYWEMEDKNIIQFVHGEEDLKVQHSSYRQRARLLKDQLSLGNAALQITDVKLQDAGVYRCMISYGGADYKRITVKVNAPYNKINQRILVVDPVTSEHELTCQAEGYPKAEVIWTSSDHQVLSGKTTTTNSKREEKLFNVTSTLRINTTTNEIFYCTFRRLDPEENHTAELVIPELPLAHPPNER

For `Cc1c(Nc2nccc3cc(CN4CC[C@@H](O)C4)cnc23)cccc1-c1cccc(-c2nc3cc(CN4CC(C(=O)O)C4)cc(Cl)c3o2)c1C` [Example P24], the IC50 against PD-L1 [1] was in the range of 10 to 100 nM; on PD-1/PD-L1, 0.1 to 1 nM; against PD-L1 [2], 100 to 1000 nM.

Turning to `Cc1c(Nc2nccc3cc(CN4CC[C@@H](O)C4)cnc23)cccc1-c1cccc(-c2nc3cc(CN4CC(C(=O)O)C4)cc(C#N)c3o2)c1C` [Example P20], the IC50 on PD-1/PD-L1 is 0.1 to 1 nM; against PD-L1 [2], 100 to 1000 nM.

On to `Cc1c(-c2nc3cc(CN4CC[C@@](C)(C(=O)O)C4)cc(C#N)c3o2)cccc1-c1cccc(Nc2nccc3cc(CN4CC[C@H](O)C4)cnc23)c1Cl` [Example P16], for which the IC50 lay in the range of 10 to 100 nM against PD-L1 [1], 0.1 to 1 nM on PD-1/PD-L1 and 100 to 1000 nM against PD-L1 [2].

Turning to `Cc1c(-c2nc3c(Cl)cc(CN4CC[C@@H](O)C4)cn3n2)cccc1-c1cccc(-c2nc3cc(CN4CC[C@@H](C(=O)O)C4)cc(C#N)c3o2)c1C` [Example P25], the IC50 at PD-L1 [1] lay within 10 to 100 nM; at PD-1/PD-L1, 0.1 to 1 nM; against PD-L1 [2], 1000 to 5000 nM.

On to `Cc1c(Nc2nccc3cc(CN4CC[C@@H](O)C4)cnc23)cccc1-c1cccc(-c2nc3c(Cl)cc(CN4CC[C@@H](C(=O)O)C4)cn3n2)c1C` [Example P17], for which the figures for the IC50 against PD-L1 [1], on PD-1/PD-L1 and against PD-L1 [2] were 100 to 500 nM, 0.1 to 1 nM and 100 to 1000 nM, respectively.

As for `Cc1c(-c2nc3cc(CN4CC[C@@H](C(=O)O)C4)cc(C#N)c3o2)cccc1-c1cccc(-c2nc3c(s2)CNCC3)c1C` [Example P12], the half-inhibitory concentration (IC50) against PD-L1 [1] was in the range of 10 to 100 nM; on PD-1/PD-L1, 0.1 to 1 nM; at PD-L1 [2], 100 to 1000 nM.

In the case of `Cc1c(Nc2nccc3cc(CN4CC[C@@H](O)C4)cnc23)cccc1-c1cccc(-c2nc3cc(CN4CC[C@@H](C(=O)O)C4)cc(C#N)c3o2)c1C` [Example P15], the IC50 fell in the range of 0.1 to 1 nM at PD-1/PD-L1 and 100 to 1000 nM against PD-L1 [2].

Turning to `CCn1nc(C)cc1C(=O)Nc1nc2cc(C(N)=O)cc(OCCCNC(=O)OCC(=O)O)c2n1C/C=C/Cn1c2nc(-c3cc(C)nn3CC)ncc2c2cc(C(N)=O)cc(OCCCOC)c21` [Example S45, (E)-2-(((3-((5-carbamoyl-1-(4-(6-carbamoyl-2-(1-ethyl-3-methyl-1H-pyrazol-5-yl)-8-(3-methoxypropoxy)-9H-pyrimido[4,5-b]indol-9-yl)but-2-en-1-yl)-2-(1-ethyl-3-methyl-1H-pyrazole-5-carboxamido)-1H-benzo[d]imidazol-7-yl)oxy)propyl)carbamoyl)oxy)acetic acid], the EC50 in the assay on IRF3 was no more than 50 nM; in assay [3], 119 ± 22 nM; in assay [4], 56 nM.

With `Cc1c(NC(=O)c2nc3c(n2C)CCN(C[C@@H](C)O)C3)cccc1-c1cccc(NC(=O)c2nc3c(n2C)CCN(C)C3)c1Cl` [Example P10], the results for the IC50 against PD-L1 [1], on PD-1/PD-L1 and at PD-L1 [2] were less than 10 nM, 0.1 to 1 nM and less than 100 nM, respectively.

`Cc1c(Nc2nccc3cc(CN4CC[C@@H](O)C4)cnc23)cccc1-c1cccc(-c2nc3cc(CNCC(C)(C)C(=O)O)cc(C#N)c3o2)c1C` [Example P21]: the IC50 on PD-L1 [1] lay in the range of 10 to 100 nM; on PD-1/PD-L1 it was 0.1 to 1 nM; on PD-L1 [2], 100 to 1000 nM.

As to `Cc1c(-c2nc3cc(CN4CC[C@@H](C(=O)O)C4)cc(C#N)c3o2)cccc1-c1cccc(NC(=O)c2nc3c(n2C)CCN(C)C3)c1Cl` [Example P22], the half-maximal inhibitory concentration (IC50) at PD-1/PD-L1 is 0.1 to 1 nM; on PD-L1 [2], less than 100 nM.

With `Cc1c(-c2nc3cc(CN4CC[C@@H](C(=O)O)C4)cc(C#N)c3o2)cccc1-c1cccc(-n2cc3c(n2)CN(C(C)C)CC3)c1Cl` [Example P19], the 50% inhibitory concentration (IC50) is greater than 500 nM against PD-L1 [1], 0.1 to 1 nM on PD-1/PD-L1 and 100 to 1000 nM on PD-L1 [2].

Turning to `Cc1c(NC(=O)c2nc3c(n2C)CCN(C2CCOCC2)C3)cccc1-c1cccc(NC(=O)c2nc3c(n2C)CCN(C)C3)c1Cl` [Example P9], the IC50 at PD-1/PD-L1 was 0.1 to 1 nM; against PD-L1 [2] it was less than 100 nM.

Consider `Cc1c(Nc2nccc3cc(CN4CC[C@@H](O)C4)cnc23)cccc1-c1cccc(Nc2nccc3cc(CN4CC[C@@H](C(=O)O)C4)cnc23)c1C` [Example P18], for which the concentration for half-maximal inhibition (IC50) was in the range of 0.1 to 1 nM at PD-1/PD-L1 and 100 to 1000 nM against PD-L1 [2].

On to `Cc1c(-c2nc3c(C#N)cc(CN4CC[C@@H](O)C4)cn3n2)cccc1-c1cccc(-c2nc3cc(CN4CC[C@@H](C(=O)O)C4)cc(C#N)c3o2)c1C` [Example P26], for which the concentration for half-maximal inhibition (IC50) against PD-L1 [1] fell in the range of 10 to 100 nM; on PD-1/PD-L1 it was 0.1 to 1 nM; against PD-L1 [2], 100 to 1000 nM.

As for `Cc1c(Nc2nccc3cc(CN4CC[C@H](C(=O)O)C4)cnc23)cccc1-c1nccc(Nc2nccc3cc(CN4CC[C@@H](O)C4)cnc23)c1C` [Example P23], the values for the IC50 against PD-L1 [1], on PD-1/PD-L1 and against PD-L1 [2] were 10 to 100 nM, 0.1 to 1 nM and 100 to 1000 nM, respectively.

Regarding `Cc1c(Nc2nccc3cc(CN4CC[C@@H](O)C4)cnc23)cccc1-c1cccc(-c2nc3cc(CC4CC[C@@H](C(=O)O)C4)cc(C#N)c3o2)c1C` (stereo partly shown) [Example P14], the 50% inhibitory concentration (IC50) was less than 10 nM against PD-L1 [1], 0.1 to 1 nM on PD-1/PD-L1 and less than 100 nM against PD-L1 [2].

Consider `Cc1c(NC(=O)c2nc3c(n2C)CCN(C[C@H](C)O)C3)cccc1-c1cccc(NC(=O)c2nc3c(n2C)CCN(C)C3)c1Cl` [Example P8], for which the IC50 against PD-L1 [1] is less than 10 nM; on PD-1/PD-L1, 0.1 to 1 nM; against PD-L1 [2], less than 100 nM.
